A short description of data set [1]: in vitro. The following applies: mouse, liver microsomes. Background: Microsomes from liver hold many membrane-bound enzymes, among them those of drug oxidation.
The nature of data set [2]: in vitro. The settings on record: human, liver microsomes.

The source of these data is ChEMBL document CHEMBL5543135, “Design and Synthesis of Novel Macrocyclic Derivatives as Potent and Selective Cyclin-Dependent Kinase 7 Inhibitors” (J Med Chem, 2024).

A word on the half-life: it is the time in which the quantity being followed falls by half. A higher half-life goes with slow loss.

`COC1CCCC2(CCNCC2)CNc2nc(n3ncc(C(C)C)c3n2)NCc2ccccc2OC1` (centres undefined): the half-life at 1 h, 1 µM in data set [1] was 27.7 min; in data set [2], 16.9 min.
Consider `CC(C)c1cnn2c(NCc3ccccc3)cc(NC[C@H]3CCNC[C@@H]3O)nc12` [CT-7001], for which the values for the half-life at 1 h, 1 µM in data set [1] and in data set [2] were 105 min and over 186 min, respectively.
